Source: patent publication US20210045385A1, “PYRIDAZINONE-SUBSTITUTED KETOXIMES AS HERBICIDES” (FMC Corporation, priority 2018, published 2021)

Experiments:
Type in all cases: in vivo
[1] = system: barnyardgrass (Echinochloa crus-galli); test: Test D flooded paddy test, visual plant response rating; conditions: 250 g ai/ha, scale 0 to 100 (0 no effect, 100 complete control), 13 to 15 d
Summary of the method: (§1)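 Rating is visual, on a 0 (no effect) to 100 (complete control) scale versus controls, taken 13 to 15 d after treatment in a greenhouse. Treatment went into paddy water kept 3 cm above the soil surface, with plants at the 2-leaf stage.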

[2] = system: sedge umbrella (small-flower umbrella sedge, Cyperus difformis); test: as above; conditions: 250 g ai/ha, scale 0 to 100 (0 no effect, 100 complete control), 13 to 15 d
Summary of the method: as §1

rice (Oryza sativa) = test: as above; conditions: 250 g ai/ha, scale 0 to 100 (0 no effect, 100 complete control), 13 to 15 d
Summary of the method: as §1

[3] = system: duck salad (Heteranthera limosa); test: as above; conditions: 250 g ai/ha, scale 0 to 100 (0 no effect, 100 complete control), 13 to 15 d
Summary of the method: as §1

[4] = system: pigweed (Amaranthus retroflexus); test: Test C preemergence, visual plant response rating
Summary of the method: (§2)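 Visual injury on a 0 (no effect) to 100 (complete control) scale versus untreated controls, scored approximately 10 d after treatment under greenhouse conditions. Treatments used surfactant-containing non-phytotoxic solvent formulations, sprayed onto loam–sand soil preemergence or onto one- to two-leaf plants 2–10 cm tall postemergence.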

[5] = system: Italian ryegrass (Lolium mutiflorum); test: Test C preemergence, visual plant response rating
Summary of the method: as §2

[6] = system: barnyardgrass (Echinochloa crus-galli); test: Test C preemergence, visual plant response rating
Summary of the method: as §2

kochia (Bassia scoparia) [7] = test: Test C preemergence, visual plant response rating
Summary of the method: as §2

[8] = system: foxtail, giant (giant foxtail, Setaria faberi); test: Test C preemergence, visual plant response rating
Summary of the method: as §2

[9] = system: ragweed (common ragweed, Ambrosia artemisiifolia); test: Test C preemergence, visual plant response rating
Summary of the method: as §2

[10] = system: wheat (Triticum aestivum); test: Test C postemergence, visual plant response rating
Summary of the method: as §2

[11] = system: galium (catchweed bedstraw, Galium aparine); test: Test C postemergence, visual plant response rating
Summary of the method: as §2

[12] = system: pigweed (Amaranthus retroflexus); test: Test C postemergence, visual plant response rating
Summary of the method: as §2

[13] = system: Italian ryegrass (Lolium mutiflorum); test: Test C postemergence, visual plant response rating
Summary of the method: as §2

[14] = system: barnyardgrass (Echinochloa crus-galli); test: Test C postemergence, visual plant response rating
Summary of the method: as §2

kochia (Bassia scoparia) [15] = test: Test C postemergence, visual plant response rating
Summary of the method: as §2

[16] = system: foxtail, giant (giant foxtail, Setaria faberi); test: Test C postemergence, visual plant response rating
Summary of the method: as §2

[17] = system: blackgrass (Alopecurus myosuroides); test: Test C postemergence, visual plant response rating
Summary of the method: as §2

corn (Zea mays) = test: Test C postemergence, visual plant response rating
Summary of the method: as §2

[18] = system: ragweed (common ragweed, Ambrosia artemisiifolia); test: Test C postemergence, visual plant response rating
Summary of the method: as §2

[19] = Test C, 31 g ai/ha, 0 is no effect, 100 is complete control
[20] = Test C, postemergence, 125 g ai/ha

SMILES	Plant response rating, Barnyardgrass (Flood) [1]	Plant response rating, Sedge, Umbrella (Flood) [2]	Plant response rating, Rice (Flood) (rice (Oryza sativa))	Plant response rating, Ducksalad (Flood) [3]	Pigweed plant response rating (0 to 100 scale) ([4]; 125 g ai/ha)	Pigweed plant response rating (0 to 100 scale) [4, 19]	Ryegrass, Italian plant response rating (0 to 100 scale) ([5]; 125 g ai/ha)	Ryegrass, Italian plant response rating (0 to 100 scale) [5, 19]	Barnyardgrass plant response rating (0 to 100 scale) ([6]; 125 g ai/ha)	Barnyardgrass plant response rating (0 to 100 scale) [6, 19]	Kochia plant response rating (0 to 100 scale) (kochia (Bassia scoparia) [7]; 125 g ai/ha)	Kochia plant response rating (0 to 100 scale) (kochia (Bassia scoparia) [7]; [19])	Foxtail, Giant plant response rating (0 to 100 scale) ([8]; 125 g ai/ha)	Foxtail, Giant plant response rating (0 to 100 scale) [8, 19]	Ragweed plant response rating (0 to 100 scale) ([9]; 125 g ai/ha)	Ragweed plant response rating (0 to 100 scale) [9, 19]	Wheat plant response rating (0 to 100 scale) ([10]; Postemergence, 31 g ai/ha)	Wheat plant response rating (0 to 100 scale) [10, 20]	Galium plant response rating (0 to 100 scale) ([11]; Postemergence, 31 g ai/ha)	Galium plant response rating (0 to 100 scale) [11, 20]	also measured
C#CCO/N=C(/c1ccc(F)c(Br)c1)c1c(O)c(C)nn(C)c1=O [Compound 163]	0	0	0	0	50	30	100	70	30	0	50	0	50	10	0	0	60	80	70	90	Pigweed plant response rating (0 to 100 scale) ([12]; Postemergence, 31 g ai/ha): 40; Pigweed plant response rating (0 to 100 scale) [12, 20]: 70; Ryegrass, Italian plant response rating (0 to 100 scale) ([13]; Postemergence, 31 g ai/ha): 50; Ryegrass, Italian plant response rating (0 to 100 scale) [13, 20]: 90; Barnyardgrass plant response rating (0 to 100 scale) ([14]; Postemergence, 31 g ai/ha): 20; Barnyardgrass plant response rating (0 to 100 scale) [14, 20]: 50; Kochia plant response rating (0 to 100 scale) (kochia (Bassia scoparia) [15]; Postemergence, 31 g ai/ha): 30; Kochia plant response rating (0 to 100 scale) (kochia (Bassia scoparia) [15]; [20]): 50; Foxtail, Giant plant response rating (0 to 100 scale) ([16]; Postemergence, 31 g ai/ha): 20; Foxtail, Giant plant response rating (0 to 100 scale) [16, 20]: 70; Blackgrass plant response rating (0 to 100 scale) ([17]; Postemergence, 31 g ai/ha): 20; Blackgrass plant response rating (0 to 100 scale) [17, 20]: 60; Corn plant response rating (0 to 100 scale) (corn (Zea mays); Postemergence, 31 g ai/ha): 0; Corn plant response rating (0 to 100 scale) (corn (Zea mays); [20]): 30; Ragweed plant response rating (0 to 100 scale) ([18]; Postemergence, 31 g ai/ha): 30; Ragweed plant response rating (0 to 100 scale) [18, 20]: 60
C#CCO/N=C(\c1ccc(F)c(Br)c1)c1c(O)c(C)nn(C)c1=O [Compound 164]	0	0	0	0	90	70	30	0	50	0	50	0	50	10	30	0	20	80	60	70	Pigweed plant response rating (0 to 100 scale) ([12]; Postemergence, 31 g ai/ha): 50; Pigweed plant response rating (0 to 100 scale) [12, 20]: 70; Ryegrass, Italian plant response rating (0 to 100 scale) ([13]; Postemergence, 31 g ai/ha): 0; Ryegrass, Italian plant response rating (0 to 100 scale) [13, 20]: 70; Barnyardgrass plant response rating (0 to 100 scale) ([14]; Postemergence, 31 g ai/ha): 30; Barnyardgrass plant response rating (0 to 100 scale) [14, 20]: 60; Kochia plant response rating (0 to 100 scale) (kochia (Bassia scoparia) [15]; Postemergence, 31 g ai/ha): 30; Kochia plant response rating (0 to 100 scale) (kochia (Bassia scoparia) [15]; [20]): 70; Foxtail, Giant plant response rating (0 to 100 scale) ([16]; Postemergence, 31 g ai/ha): 10; Foxtail, Giant plant response rating (0 to 100 scale) [16, 20]: 70; Blackgrass plant response rating (0 to 100 scale) ([17]; Postemergence, 31 g ai/ha): 30; Blackgrass plant response rating (0 to 100 scale) [17, 20]: 50; Corn plant response rating (0 to 100 scale) (corn (Zea mays); Postemergence, 31 g ai/ha): 10; Corn plant response rating (0 to 100 scale) (corn (Zea mays); [20]): 30; Ragweed plant response rating (0 to 100 scale) ([18]; Postemergence, 31 g ai/ha): 20; Ragweed plant response rating (0 to 100 scale) [18, 20]: 50
CO/N=C(/c1cc(Cl)cc(OC)c1)c1c(O)c(C)nn(C)c1=O [Compound 165]	0	0	0	0	20	0	100	80	80	60	100	80	70	60	90	50	0	30	100	100	Pigweed plant response rating (0 to 100 scale) ([12]; Postemergence, 31 g ai/ha): 40; Pigweed plant response rating (0 to 100 scale) [12, 20]: 70; Ryegrass, Italian plant response rating (0 to 100 scale) ([13]; Postemergence, 31 g ai/ha): 70; Ryegrass, Italian plant response rating (0 to 100 scale) [13, 20]: 100; Barnyardgrass plant response rating (0 to 100 scale) ([14]; Postemergence, 31 g ai/ha): 40; Barnyardgrass plant response rating (0 to 100 scale) [14, 20]: 80; Kochia plant response rating (0 to 100 scale) (kochia (Bassia scoparia) [15]; Postemergence, 31 g ai/ha): 90; Kochia plant response rating (0 to 100 scale) (kochia (Bassia scoparia) [15]; [20]): 90; Foxtail, Giant plant response rating (0 to 100 scale) ([16]; Postemergence, 31 g ai/ha): 20; Foxtail, Giant plant response rating (0 to 100 scale) [16, 20]: 70; Blackgrass plant response rating (0 to 100 scale) ([17]; Postemergence, 31 g ai/ha): 20; Blackgrass plant response rating (0 to 100 scale) [17, 20]: 40; Corn plant response rating (0 to 100 scale) (corn (Zea mays); Postemergence, 31 g ai/ha): 0; Corn plant response rating (0 to 100 scale) (corn (Zea mays); [20]): 20; Ragweed plant response rating (0 to 100 scale) ([18]; Postemergence, 31 g ai/ha): 80; Ragweed plant response rating (0 to 100 scale) [18, 20]: 100
C#CCO/N=C(\c1ccc(Cl)c(Cl)c1)c1c(O)c(C)nn(C)c1=O [Compound 166]	0	0	0	0	50	0	60	10	50	0	80	0	60	0	10	0	0	60	50	80	Pigweed plant response rating (0 to 100 scale) ([12]; Postemergence, 31 g ai/ha): 30; Pigweed plant response rating (0 to 100 scale) [12, 20]: 50; Ryegrass, Italian plant response rating (0 to 100 scale) ([13]; Postemergence, 31 g ai/ha): 0; Ryegrass, Italian plant response rating (0 to 100 scale) [13, 20]: 80; Barnyardgrass plant response rating (0 to 100 scale) ([14]; Postemergence, 31 g ai/ha): 20; Barnyardgrass plant response rating (0 to 100 scale) [14, 20]: 30; Kochia plant response rating (0 to 100 scale) (kochia (Bassia scoparia) [15]; Postemergence, 31 g ai/ha): 30; Kochia plant response rating (0 to 100 scale) (kochia (Bassia scoparia) [15]; [20]): 40; Foxtail, Giant plant response rating (0 to 100 scale) ([16]; Postemergence, 31 g ai/ha): 10; Foxtail, Giant plant response rating (0 to 100 scale) [16, 20]: 30; Blackgrass plant response rating (0 to 100 scale) ([17]; Postemergence, 31 g ai/ha): 0; Blackgrass plant response rating (0 to 100 scale) [17, 20]: 20; Corn plant response rating (0 to 100 scale) (corn (Zea mays); Postemergence, 31 g ai/ha): 0; Corn plant response rating (0 to 100 scale) (corn (Zea mays); [20]): 20; Ragweed plant response rating (0 to 100 scale) ([18]; Postemergence, 31 g ai/ha): 20; Ragweed plant response rating (0 to 100 scale) [18, 20]: 30
